Common to all, as to test: Leaf piece damage test
Type in all cases: in vivo
Common to all, as to design: key: 4: The leaf completely dead; 3: Two third of the leaf withered; 2: One half of the leaf withered; 1: Only edge of the leaf withered; 0: Not damage at all
Common to all, as to settings: 50 μg/mL, 4 days

One experiment has as its system Duchesnea indica. Summed up: (§1)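 Test compounds were dissolved in a little methanol and diluted in distilled water to 50 μg/mL, with methanol-water and pure water as controls. Five 5 mm pieces cut from the second leaf were treated three times per treatment. Damage was scored after 4 days and converted to a damage index.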
For a further experiment, the system named is Conyza canademsis. Summed up:
as §1

For a further experiment, the system named is Keng stiffgrass. Summed up: as §1
For another experiment, the system named is Equal alopecurus. Summed up: as §1
Another experiment deals with Carpesium abrotanoides. Summed up: as §1
In a further experiment the test system is Mosla scabra. Summed up:
as §1

In experiment [1] the test system is Japanese false bindweed (Calystegia hederacea). In a few lines: as §1
The next experiment concerns Plantago asiatica. In a few lines:
as §1

The next experiment concerns Galeopsis bifida. In a few lines:
as §1

The test system of a further experiment is Trifolium pretense. Summed up:
as §1

Another experiment has as its system Common polypogon. Summed up:
as §1

For another experiment, the system named is Polygonum perfoliatum. Summed up: as §1
The next experiment has as its system Commelina communis. In a few lines:
as §1

In experiment [2] the test system is Crabgrass (Digitaria sanguinalis). In a few lines:
as §1

In a further experiment the test system is Rumex japonicus. In a few lines: as §1
The next experiment has as its system Leptochloa chinensis. In a few lines: as §1
The next experiment deals with Eupatorium adenophorum. In a few lines: as §1
In a further experiment the test system is Polygonum lapathifolium. Summed up:
as §1

The next experiment has as its system Polygonum hydropiper. Summed up:
as §1

A further experiment relates to Big Bristlegass. In a few lines: as §1
The test system of experiment [3] is Pigweed (Amaranthus spinosus). Summed up: as §1
The test system of the next experiment is Wild oats. Summed up: as §1

As for `CCCCC1NC(=O)C(C(C)=O)=C1O` (stereo not drawn) [Compound 14], the Damage level is recorded as 2 with Duchesnea indica; 3 in the experiment with Conyza canademsis; 3 with Keng stiffgrass; 3 in the experiment with Equal alopecurus; 2 with Carpesium abrotanoides; 2 in the experiment with Mosla scabra. Moreover, the Damage level came to 3 in [1]; 2 with Plantago asiatica; 2 with Galeopsis bifida; 3 with Trifolium pretense; 3 with Common polypogon; 2 in the experiment on Polygonum perfoliatum. Moreover, the Damage level is recorded as 2 in the experiment on Commelina communis; 4 in [2]; 1 in the experiment with Rumex japonicus; 4 in the experiment with Leptochloa chinensis; 3 in the experiment on Eupatorium adenophorum; 2 with Polygonum lapathifolium. The Damage level in the experiment on Polygonum hydropiper was found to be 2; in the experiment with Big Bristlegass, 2; in experiment [3], 2; in the experiment on Wild oats it was 3.

With `CCCCCC1NC(=O)C(C(C)=O)=C1O` (stereo not drawn) [Compound 15], the Damage level is 3 with Duchesnea indica; 3 in the experiment on Conyza canademsis; 3 in the experiment with Keng stiffgrass; 3 with Equal alopecurus; 2 with Carpesium abrotanoides; 2 in the experiment on Mosla scabra. Besides, the Damage level in [1] worked out at 3; with Plantago asiatica, 3; in the experiment on Galeopsis bifida, 2; with Trifolium pretense, 3; in the experiment on Common polypogon, 3; in the experiment on Polygonum perfoliatum it was 2. Also, the Damage level was 2 with Commelina communis; 4 in experiment [2]; 2 in the experiment on Rumex japonicus; 4 in the experiment with Leptochloa chinensis; 4 in the experiment with Eupatorium adenophorum; 2 with Polygonum lapathifolium. Moreover, the Damage level in the experiment on Polygonum hydropiper came out at 2; in the experiment with Big Bristlegass, 2; in experiment [3], 2; in the experiment with Wild oats, 3.

In the case of `CCCCCCC1NC(=O)C(C(C)=O)=C1O` (stereo not drawn) [Compound 16], the Damage level with Duchesnea indica turned out to be 2; with Conyza canademsis it was 3; with Keng stiffgrass, 3; in the experiment on Equal alopecurus, 3; with Carpesium abrotanoides, 2; with Mosla scabra, 2. Besides, the Damage level came out at 4 in [1]; 2 with Plantago asiatica; 2 in the experiment on Galeopsis bifida; 3 in the experiment with Trifolium pretense; 3 in the experiment with Common polypogon; 3 in the experiment on Polygonum perfoliatum. The Damage level is 3 with Commelina communis; 4 in experiment [2]; 2 in the experiment with Rumex japonicus; 4 in the experiment on Leptochloa chinensis; 4 with Eupatorium adenophorum; 2 in the experiment on Polygonum lapathifolium. The Damage level in the experiment with Polygonum hydropiper was determined as 3; with Big Bristlegass, 3; in [3] it was 2; in the experiment on Wild oats, 3.

For `CCCC(Cl)C1NC(=O)C(C(C)=O)=C1O` (stereo not drawn) [Compound 40], the Damage level is given as 2 with Duchesnea indica; 3 in the experiment with Conyza canademsis; 3 in the experiment with Keng stiffgrass; 3 in the experiment with Equal alopecurus; 3 in the experiment with Carpesium abrotanoides; 2 in the experiment with Mosla scabra. For the same compound, the Damage level (in experiment [1]; in the experiment with Plantago asiatica; in the experiment on Galeopsis bifida; in the experiment with Trifolium pretense; in the experiment with Common polypogon; with Polygonum perfoliatum) was 3 throughout. Besides, the Damage level came to 3 with Commelina communis; 4 in experiment [2]; 2 with Rumex japonicus; 4 in the experiment on Leptochloa chinensis; 4 with Eupatorium adenophorum; 2 in the experiment with Polygonum lapathifolium. The Damage level in the experiment on Polygonum hydropiper turned out to be 2; in the experiment on Big Bristlegass, 3; in experiment [3], 2; in the experiment on Wild oats, 3.

With `CCC(C)C1NC(=O)C(C(=O)CCF)=C1O` (stereo not drawn) [Compound 44], the Damage level in the experiment with Duchesnea indica stood at 3; in the experiment with Conyza canademsis, 4; with Keng stiffgrass, 3; with Equal alopecurus, 3; with Carpesium abrotanoides, 3; with Mosla scabra, 2. Also, the Damage level in [1] is reported as 4; with Plantago asiatica, 3; in the experiment on Galeopsis bifida, 3; with Trifolium pretense, 4; with Common polypogon, 4; in the experiment with Polygonum perfoliatum, 3. Moreover, the Damage level in the experiment with Commelina communis was determined as 2; in [2], 4; with Rumex japonicus, 3; in the experiment on Leptochloa chinensis it was 4; in the experiment on Eupatorium adenophorum, 4; in the experiment with Polygonum lapathifolium, 2. For the same compound, the Damage level was 3 in the experiment with Polygonum hydropiper, 2 in the experiment with Big Bristlegass, 3 in [3] and 3 with Wild oats.

Consider `CCC(C)C1NC(=O)C(C(=O)CCc2cc(Cl)cc(Cl)c2)=C1O` (stereo not drawn) [Compound 48], for which the Damage level with Duchesnea indica was 3; with Conyza canademsis, 4; in the experiment with Keng stiffgrass, 4; in the experiment with Equal alopecurus, 4; in the experiment on Carpesium abrotanoides, 4; in the experiment with Mosla scabra, 2. Besides, the Damage level in experiment [1] is given as 4; with Plantago asiatica, 2; with Galeopsis bifida, 2; with Trifolium pretense, 4; in the experiment on Common polypogon, 4; with Polygonum perfoliatum, 3. Moreover, the Damage level amounted to 4 with Commelina communis; 4 in experiment [2]; 2 in the experiment on Rumex japonicus; 4 in the experiment on Leptochloa chinensis; 4 in the experiment on Eupatorium adenophorum; 2 in the experiment on Polygonum lapathifolium. Also, the Damage level (with Polygonum hydropiper; with Big Bristlegass; in experiment [3]; in the experiment with Wild oats) was 3 in each case.

The values above are taken from patent US9468209B2, “Method for eradicating weeds with derivatives of 3-acetyl-5-sec-butyl-4-hydroxy-3-pyrrolin-2-one” (priority 2012, dated 2016).
